Numbers after ± are expanded uncertainties.
Conditions: Liquid, Rate of evaporation

Row | vapor or sublimation pressure (523.15 K) [kPa] | vapor or sublimation pressure (548.15 K) [kPa] | vapor or sublimation pressure (573.15 K) [kPa] | vapor or sublimation pressure (598.15 K) [kPa] | vapor or sublimation pressure (623.15 K) [kPa] | vapor or sublimation pressure (463.15 K) [kPa] | vapor or sublimation pressure (483.15 K) [kPa] | vapor or sublimation pressure (503.15 K) [kPa] | vapor or sublimation pressure (543.15 K) [kPa] | Structure (SMILES)
1 | 1.31 ± 0.1 | 4.49 ± 0.35 | 12.3 ± 1 | 30 ± 2.3 | 65 ± 5 |  |  |  |  | OC[C@@H](O)[C@@H](O)[C@H](O)[C@@H](O)CO [D-sorbitol]
2 | 34.5 ± 2.7 |  |  |  |  | 3.85 ± 0.3 | 8.64 ± 0.67 | 17.9 ± 1.4 | 62.6 ± 4.8 | OCC(O)CO [glycerol]

From the NIST ThermoML archive (doi:10.1021/je800070y)
